Data taken from paper PMC7383931, “Novel Thienopyrimidine Inhibitors of Leishmania N-Myristoyltransferase with On-Target Activity in Intracellular Amastigotes” (Journal of Medicinal Chemistry, 2020).
Values joined by “and” are separate entries in the source; they are usually repeats but may differ in a detail not shown here. Equal entries are not always repeated. Where two headings read alike, the source gives them in different places.

Tests used:
[1] = test system: bone-marrow-derived macrophages (BMDM); test: Alamar blue-based assay, macrophage toxicity; format: cell-based, BALB/c mice; conditions: for BMDM TC50: toxicity against bone marrow derived macrophages; for Alamar Blue Assay nAUC: toxicity against bone-marrow-derived macrophages, normalized area under the curve
Protocol: . Due to the steep slope of the toxicity profile and the correspondingly low accuracy of the CC50 values, the normalized area under the curve (nAUC) was used as the toxicity parameter (Figure 6A). […].
Macrophages (BMDM) were differentiated from the bone marrow of 6–8 week old female BALB/c mice, as described previously,[37] and maintained at 37 °C and 5% CO2 in DMEM (GIBCO) supplemented with 4 mM L-glutamine (GIBCO) and 4% L929-cell-conditioned medium. BMDMs were seeded at 4.2 × 10^4 cells per well in 96-well plates and adhered for at least 4 h. Subsequently, inhibitor concentrations were added for 72 h, followed by the addition of a 1/10 volume Alamar blue (Trek Diagnostics). Fluorescence was measured after 6 h as described above.

[2] = test system: NMT (protein myristoylation) in L. donovani amastigotes; format: cell-based; conditions: in-gel fluorescence, varying inhibitor concentrations
LdNMT = LdNMT (Leishmania donovani, UniProt D0AB09); test: biochemical; conditions: 95% confidence interval in brackets
Chain of LdNMT (D0AB09 entry or part of it): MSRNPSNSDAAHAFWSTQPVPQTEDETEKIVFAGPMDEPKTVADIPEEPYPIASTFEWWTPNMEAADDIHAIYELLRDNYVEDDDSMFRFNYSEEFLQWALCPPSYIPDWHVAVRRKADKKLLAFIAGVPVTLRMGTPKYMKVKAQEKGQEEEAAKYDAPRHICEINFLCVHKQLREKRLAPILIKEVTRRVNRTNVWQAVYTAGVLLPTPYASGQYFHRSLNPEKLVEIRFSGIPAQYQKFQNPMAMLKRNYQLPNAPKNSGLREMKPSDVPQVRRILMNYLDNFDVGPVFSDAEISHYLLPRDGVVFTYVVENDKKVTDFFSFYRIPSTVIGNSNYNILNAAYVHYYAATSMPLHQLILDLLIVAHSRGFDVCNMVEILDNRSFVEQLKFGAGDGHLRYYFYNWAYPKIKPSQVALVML

L. donovani amastigotes = test: Alamar blue-based assay, L. donovani amastigotes; format: cell-based; conditions: Leishmania donovani
LmNMT = target: T1, LmNMT (Leishmania major, UniProt Q4Q5S8); test: CPM assay (fluorogenic NMT activity assay), LmNMT; format: biochemical; conditions: 95% confidence interval in brackets; read-out: CPM Assay, IC50 (CI95) LmNMT
T1 sequence (Q4Q5S8 1-421): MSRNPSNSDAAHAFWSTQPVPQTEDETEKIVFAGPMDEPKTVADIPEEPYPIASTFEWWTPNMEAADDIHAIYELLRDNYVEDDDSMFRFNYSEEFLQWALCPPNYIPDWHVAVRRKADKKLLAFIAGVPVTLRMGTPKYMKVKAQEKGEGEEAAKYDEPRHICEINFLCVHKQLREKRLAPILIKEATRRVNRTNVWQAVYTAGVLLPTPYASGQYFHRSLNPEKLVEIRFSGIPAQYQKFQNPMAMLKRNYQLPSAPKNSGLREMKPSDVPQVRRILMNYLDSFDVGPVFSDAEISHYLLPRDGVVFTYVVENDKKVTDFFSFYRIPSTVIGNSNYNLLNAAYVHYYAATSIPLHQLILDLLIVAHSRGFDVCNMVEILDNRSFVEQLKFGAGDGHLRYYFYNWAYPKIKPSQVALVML

HsNMTs = test system: HsNMTs; set-up: method as in PMID 30380837; conditions: versus Leishmania major (Lm) NMT; cited from earlier work
[3] = test system: intracellular amastigotes; set-up: method as in PMID 30380837; conditions: cited from earlier work

SMILES	BMDM TC50 [1]	Alamar Blue Assay nAUC [1]	also measured
CN(C)CCCN(C)c1nc(N(C)CCC#N)c2cc(Br)ccc2n1 [Compound 56, 3-((6-Bromo-2-((3-(dimethylamino)propyl)(methyl)amino)quinazolin-4-yl)(methyl)amino)propanenitrile]	>40 µM	1.3 and 1.28	–
CN(C)CCCN(C)c1nc(N(C)CCC#N)c2ccccc2n1 [Compound 4, 3-((2-((3-(Dimethylamino)propyl)(methyl)amino)quinazolin-4-yl)(methyl)amino)propanenitrile]	>100 µM	1.17	–
CN1CCC(N(C)c2nc(N(C)CCC#N)c3sccc3n2)CC1 [Compound 1, 3-(Methyl(2-(methyl(1-methylpiperidin-4-yl)amino)thieno[3,2-d]pyrimidin-4-yl)amino)propanenitrile]	>100 µM	1.07	effect on myristoylation [2]: significantly decreased myristoylation in a dose-dependent manner
CN1CCC(N(C)c2nc(N(C)CCC#N)c3sc(C(C)(C)C)cc3n2)C1 (stereo not shown) [Compound 52, 3-((6-(tert-Butyl)-2-(methyl(1-methylpyrrolidin-3-yl)amino)thieno[3,2-d]pyrimidin-4-yl)(methyl)amino)propanenitrile]	>40 µM	–	–
CN(C)CCCN(C)c1nc(N(C)CCC#N)c2sc(C(C)(C)C)cc2n1 [Compound 51, 3-((6-(tert-Butyl)-2-((3-(dimethylamino)propyl)(methyl)amino)thieno[3,2-d]pyrimidin-4-yl)(methyl)amino)propanenitrile]	27.3 (24.1-31.0) μM	–	–
CCN(C)c1nc(N(C)C2CCNCC2)nc2ccc(S(=O)(=O)Nc3c(C)nn(C)c3C)cc12 [Compound 65, 4-(Ethyl(methyl)amino)-2-(methyl(piperidin-4-yl)amino)-N-(1,3,5-trimethyl-1H-pyrazol-4-yl)quinazoline-6-sulfonamide]	–	–	IC50 (LdNMT; CPM Assay, IC50 (CI95) LdNMT): 0.33 µM
CN(C)CCCN(C)c1nc(N2CCC[C@H]2CO)c2sccc2n1 [Compound 39, (S)-(1-(2-((3-(Dimethylamino)propyl)(methyl)amino)thieno[3,2-d]pyrimidin-4-yl)pyrrolidin-2-yl)methanol]	>50 µM	1.14	–
CN1CCC(N(C)c2nc(N(C)CCC#N)c3ccccc3n2)CC1 [Compound 3, 3-(Methyl(2-(methyl(1-methylpiperidin-4-yl)amino)quinazolin-4-yl)amino)propanenitrile]	>100 µM	1.04	–
CN(C)CCCN(C)c1nc(N(C)CCC(N)=O)c2sccc2n1 [Compound 36]	>50 µM	–	–
CN1CCC(N(C)c2nc(N3CCC[C@H]3CC#N)c3sccc3n2)CC1 [Compound 43, (S)-2-(1-(2-(Methyl(1-methylpiperidin-4-yl)amino)thieno[3,2-d]pyrimidin-4-yl)pyrrolidin-2-yl)acetonitrile]	>50 µM	1.08	–
CN1CCC(N(C)c2nc(N(C)CCC#N)c3ccccc3n2)C1 (stereo not shown) [Compound 26, 3-(Methyl(2-(methyl(1-methylpyrrolidin-3-yl)amino)quinazolin-4-yl)amino)propanenitrile]	>50 µM	1.03	effect on myristoylation [2]: significantly decreased myristoylation in a dose-dependent manner
CN1CCC(N(C)c2nc(N(C)CCC#N)c3sc(C(C)(C)C)cc3n2)CC1 [Compound 50, 3-((6-(tert-Butyl)-2-(methyl(1-methylpiperidin-4-yl)amino)thieno[3,2-d]pyrimidin-4-yl)(methyl)amino)propanenitrile]	–	–	EC50 (L. donovani amastigotes; extracellular L. donovani amastigotes (Table S2), read-out: Ld Amastigotes EC50 (CI05)): 10.1 µM; EC50 (L. donovani amastigotes; intracellular L. donovani amastigotes, read-out: Alamar Blue Assay EC50 (CI95)): 10 µM
COC[C@@H]1CCCN1c1nc(N(C)C2CCN(C)CC2)nc2ccsc12 [Compound 40, (S)-4-(2-(Methoxymethyl)pyrrolidin-1-yl)-N-methyl-N-(1-methylpiperidin-4-yl)thieno[3,2-d]pyrimidin-2-amine]	>40 µM	1.06	–
CN(CCC#N)c1nc(N(C)C2CCNCC2)nc2ccccc12 [Compound 23, 3-(Methyl(2-(methyl(piperidin-4-yl)amino)quinazolin-4-yl)amino)propanenitrile]	>50 µM	–	–
CN(C)CCCN(C)c1nc(N(C)CCCO)c2sccc2n1 [Compound 35, 3-((2-((3-(Dimethylamino)propyl)(methyl)amino)thieno[3,2-d]pyrimidin-4-yl)(methyl)amino)propan-1-ol]	>50 µM	–	–
CCN(C)c1nc(N(C)C2CCNCC2)nc2ccsc12 [Compound 47, N^4-Ethyl-N^2,N^4-dimethyl-N^2-(piperidin-4-yl)thieno[3,2-d]pyrimidine-2,4-diamine]	>50 µM	–	–
CN(CCC#N)c1nc(N(C)C2CCNC2)nc2cc(C(C)(C)C)sc12 (stereo not shown) [Compound 53, 3-((6-(tert-Butyl)-2-(methyl(pyrrolidin-3-yl)amino)thieno[3,2-d]pyrimidin-4-yl)(methyl)amino)propanenitrile]	>40 µM	–	–
CCN1CCC(N(C)c2nc(N(C)CCC#N)c3sccc3n2)CC1 [Compound 12, 3-(Methyl(2-(methyl(1-ethylpiperidin-4-yl)amino)thieno[3,2-d]pyrimidin-4-yl)amino)propanenitrile]	>50 µM	1.05	–
CN(CCC#N)c1nc(N(CCCO)C2CCNCC2)nc2ccccc12 [Compound 29, 3-((2-((3-Hydroxypropyl)(piperidin-4-yl)amino)quinazolin-4-yl)(methyl)amino)propanenitrile]	–	–	IC50 (LmNMT): 15 µM and 15.3 µM
CN(CCC#N)c1nc(N(C)C2CCNCC2)nc2ccsc12 [Compound 10, 3-(Methyl(2-(methyl(piperidin-4-yl)amino)thieno[3,2-d]pyrimidin-4-yl)amino)propanenitrile]	>50 µM	1.05	–
CN1CCC(N(CCCO)c2nc(N(C)CCC#N)c3ccccc3n2)CC1 [Compound 30, 3-((2-((3-Hydroxypropyl)(1-methylpiperidin-4-yl)amino)quinazolin-4-yl)(methyl)amino)propanenitrile]	–	–	IC50 (LmNMT): 19 µM and 18.8 µM
CCN1CCC(N(C)c2nc(N(C)CCC#N)c3ccccc3n2)CC1 [Compound 24, 3-((2-((1-Ethylpiperidin-4-yl)(methyl)amino)quinazolin-4-yl)(methyl)amino)propanenitrile]	>50 µM	–	–
Cc1nn(C)c(C)c1N(C(F)F)S(=O)(=O)c1c(Cl)cc(CCCC2CCN(C)CC2)cc1Cl [DDD100097]	–	–	selectivity over HsNMTs (HsNMTs): 10 fold; EC50 [3]: 2.4 µM
CN(C)CCCN(C)c1nc(N(C)CCC#N)c2sccc2n1 [Compound 2, 3-((2-((3-(Dimethylamino)propyl)(methyl)amino)thieno[3,2-d]pyrimidin-4-yl)(methyl)amino)propanenitrile]	–	–	IC50 (LdNMT; read-out: CPM Assay, IC50 (CI95) LdNMT): 0.59 µM
CCN(C)c1nc(N(C)C2CCN(C)CC2)nc2ccsc12 [Compound 46, N^4-Ethyl-N^2,N^4-dimethyl-N^2-(1-methylpiperidin-4-yl)thieno[3,2-d]pyrimidine-2,4-diamine]	>50 µM	1.05	–
